Measurements reported in US12516364B2, “Device for testing bacterium, and method for testing bacterium” (Hitachi High-Tech Corporation, priority 2018, dated 2026).

System: Escherichia coli
Assay: antibacterial susceptibility determination from microscopic images (luminance value and area of bacteria)
Type: cell-based
Details: ampicillin 2 μg/mL; 0 to 360 minutes; with or without minimum filter; growth has not occurred over the entire image
Method: The test plate 102 has a plurality of wells, and each well holds a medium component that facilitate the growth of bacteria and an antibacterial drug to be tested. After a bacterial solution containing the bacteria to be tested is dispensed to each well, the test plate 102 is introduced into the bacteria test apparatus 100. The bacteria test apparatus 100 is adjusted to a temperature, such as 37° C., at which the bacteria can grow.
The illuminator 101 illuminates the test plate 102 with light. As the illuminator 101, a light source of white light such as a lamp or a light source of light in a specific wavelength range such as an LED may be used. Light passing through each well of the test plate 102 is condensed by the objective lens 103 and measured as an image by the imager 104. […] Further, images of a plurality of points in each well may be captured, or alternatively, a plurality of images of the inside of the culture solution away from the bottom surface of each well of the test plate 102 may be measured. […]
The determiner 1055 acquires the new feature from the arithmetic unit 1051 and outputs the determination result for each well. […] The mean of luminance values is calculated from the image captured at the preset determination time, and a difference from the mean of luminance values at an initial culture stage is calculated. […]

SMILES: CC1(C)S[C@@H]2[C@H](NC(=O)[C@H](N)c3ccccc3)C(=O)N2[C@H]1C(=O)O [ampicillin]
- time variation in mode of luminance values: does not vary
